One test has as its system PC-3 and DU-145 cells. More on the design: method as in Lu et al, 1997 and 1999; dose or concentration left out as unconfirmed. Conditions: ref Lu et al, 1997 and 1999; cited from earlier work.
Test [1] relates to LNCaP, PC3 and DU145 cells. Nature of the test: Plate colony formation assay, stated over the three serum-free grown lines. The class given is cell-based, human. Conditions: 100 nM, three cell lines, ITS+ and FBS cells. The source says:
(§1) Prostate cancer is one of the most common cancers in European and American males and has a high mortality rate (Landis et al, 1998; Rosenthal, 1998). Early disease is managed conservatively in Europe although in selected patients surgery is curative. In advanced disease, androgen ablation can produce symptomatic improvement, but the tumour often re-emerges in an androgen- independent and incurable form. One proposed treatment for androgen-independent prostate carcinoma is differentiation ther- apy, in which agents such as all-trans-retinoic acid (ATRA), 9-cis- retinoic acid and 1, 25-dihydroxyvitamin D3 (D3 ) are used to induce growth arrest, differentiation and sometimes apoptosis of the tumour cells (Liang et al, 1999; de Vos et al, 1997; Skowronski et al, 1994; Hedlund et al, 1997). ATRA and synthetic analogues exert their biological effects by binding to two families of retinoid receptors, […]. These are ligand-dependent transcription factors of the steroid/thyroid hormone nuclear receptor superfamily (Chambon 1994; Boehm et al, 1995). Activated RARs bind to retinoic acid-responsive elements (RAREs) in the promoters of genes and thus regulate gene expression. They also antagonize the activity of the tran- scription factor AP1 and thereby down-regulate the expression of some AP1-activated genes (Nagpal et al, 1995). One approach to unravelling the contributions of RAR sub-types to these actions has been the development of synthetic retinoids with selective activities at individual RARs and RXRs. For example, the diaryl- acetylenic retinoids allow separation of transactivation and AP1 antagonism functions at RAR (Nagpal et al, 1995). Recently, compounds that are selective for particular RAR sub-types have been synthesized: these include both agonists and antagonists (Chandraratna, 1995; Teng et al, 1999; Johnson et al, 1999). The functional selectivity of these compounds may open the way to achieving differentiation or apoptosis of tumour cells with minimal systemic side effects (Chandraratna, 1995). Cell lines that are commonly used in the evaluation of investiga- tional agents for prostate cancer include LNCaP, DU-145 and PC- 3. […] These lines are relatively insensitive to growth inhibition and induction of apoptosis by ATRA and by synthetic agonists. […] Fenretinide (4HPR) induces apoptosis of LNCaP and of PC-3 cells at 1-5 M and 25 µM, respectively (Pienta et al, 1993; Heish and Wu, 1997). Pfahl and colleagues examined the growth inhibitory effects of a panel of receptor-selective retinoids against DU145 and PC-3 cells and achieved complete growth inhibition and induction of apoptosis between 1 M and 10 M (Lu et al, 1999). […] Antagonists of retinoic acid receptors (RARs) are potent growth inhibitors of prostate carcinoma cells LA Hammond1 , CH Van Krinks2 , J Durham2 , SE Tomkins2 , RD Burnett3 , EL Jones1 , RAS Chandraratna3 and G Brown2 Divisions of 1 Cancer Studies and of 2 Immunity and Infection, University of Birmingham Medical School, Edgbaston, Birmingham B15 2TT, UK and 3 Retinoid Research, Allergan Inc., Irvine, California, USA Summary Novel synthetic antagonists of retinoic acid receptors (RARs) have been developed. To avoid interference by serum retinoids when testing these compounds, we established serum-free grown sub-lines (>3 years) of the prostate carcinoma lines LNCaP, PC3 and DU145. […] A component(s) of serum and of LNCaP-conditioned medium diminishes the activity of antagonists: this factor is not the most likely candidates IGF-1 and EGF. In vitro studies of RAR antagonists together with data from RAR-null mice lead to the hypothesis that RAR-regulated gene transcription is necessary for the survival and maintenance of prostate epithelium. […]

The subject of another test is FBS-grown DU145 cells. Nature of the test: Plate colony formation assay, FBS-grown DU145. In kind it is cell-based, human. More on the design: dose or concentration left out as unconfirmed. As to conditions: ATRA. The source says: Prostate cancer is one of the most common cancers in European and American males and has a high mortality rate (Landis et al, 1998; Rosenthal, 1998). Early disease is managed conservatively in Europe although in selected patients surgery is curative. In advanced disease, androgen ablation can produce symptomatic improvement, but the tumour often re-emerges in an androgen- independent and incurable form. One proposed treatment for androgen-independent prostate carcinoma is differentiation ther- apy, in which agents such as all-trans-retinoic acid (ATRA), 9-cis- retinoic acid and 1, 25-dihydroxyvitamin D3 (D3 ) are used to induce growth arrest, differentiation and sometimes apoptosis of the tumour cells (Liang et al, 1999; de Vos et al, 1997; Skowronski et al, 1994; Hedlund et al, 1997). ATRA and synthetic analogues exert their biological effects by binding to two families of retinoid receptors, […]. These are ligand-dependent transcription factors of the steroid/thyroid hormone nuclear receptor superfamily (Chambon 1994; Boehm et al, 1995). Activated RARs bind to retinoic acid-responsive elements (RAREs) in the promoters of genes and thus regulate gene expression. They also antagonize the activity of the tran- scription factor AP1 and thereby down-regulate the expression of some AP1-activated genes (Nagpal et al, 1995). […]

In the next test the test system is LNCaP cells. Conditions: cited from earlier work.
The test system of a further test is PC-3 cells. More on the design: method as in Pienta et al, 1993; Heish and Wu, 1997. Conditions: ref Pienta et al, 1993; Heish and Wu, 1997; cited from earlier work.
The subject of the next test is breast carcinoma lines. Also noted: method as in Fanjul et al, 1998. As to conditions: low serum (0.5%); ref Fanjul et al, 1998; cited from earlier work.
For a further test, the system named is LNCaP ITS+ cells. Nature of the test: Plate colony formation (clonal proliferation) assay, serum-free (ITS+)-grown LNCaP. The class given is cell-based, human.
Excerpt: as §1

Read-outs that look alike come from different tables or passages of the source. Where only a bound is given, the exact number is not on record here.

On to `CC1=C(/C=C/C(C)=C/C=C/C(C)=C/C(=O)O)C(C)(C)CCC1` [ATRA, all-trans retinoic acid], for which the “growth inhibition and apoptosis” value in the test on PC-3 and DU-145 cells is “neither inhibits the growth nor induces apoptosis”. Moreover, the “effect on colony formation” value in test [1] is “little effect”. Also, in the test on FBS-grown DU145 cells, the “reduction in colony formation” value is less than 1%. In the test with LNCaP cells (ref Gao et al, 1999), the concentration inducing apoptosis was 2 µM.

Consider `CC1=C(/C=C/C(C)=C/C=C/C(C)=C/C(=O)Nc2ccc(O)cc2)C(C)(C)CCC1` [Fenretinide], for which the concentration inducing apoptosis with LNCaP cells (ref Pienta et al, 1993, Heish and Wu, 1997) is 1 to 5 µM; in the test with PC-3 cells, 25 µM.

As to `COCCOCOc1ccc(C(=O)/C=C/c2ccc(C(=O)O)cc2)cc1C12CC3CC(CC(C3)C1)C2` [MX781], the concentration abolishing cell proliferation in the test with breast carcinoma lines was greater than 1 µM.

For `C/C(=C\c1ccc(C(=O)O)cc1)c1ccc2c(c1)C(C)(C)CCC2(C)C` [TTNPB, reference compound], the entries for the “inhibition of colony formation” value in the test on LNCaP ITS+ cells (TTNPB alone at 10 -6 M) and with LNCaP ITS+ cells (TTNPB alone at 10 -7 M) were greater than 90% and ~ 10%, respectively.

With “EGF: Epidermal growth factor (R & D, Abingdon, UK) (NSDSECPLSHDGYCLHDGVCMYIEALDKYACNCVVGYIGERCQYRDLKWWELR; UniProt P01133 971-1023, looked up)”, the “reversal of the inhibition of colony formation by 100 nM AGN194310” value in the test on LNCaP ITS+ cells (EGF at 1, 10 and 20 ng/ml) is on record as “did not reverse”.

The values are drawn from publication PMC2364081, “Antagonists of retinoic acid receptors (RARs) are potent growth inhibitors of prostate carcinoma cells” (British Journal of Cancer, 2001).
